The record followed here is patent US10870102B2, “Radical generating catalyst, method for producing radical, method for producing oxidation reaction product, drug, and drug for agriculture and livestock” (ACENET INC., priority 2015, dated 2020).

“And” between values parts separate entries of the source, which are not always exact repeats. Identical values can stand only once. Like-named read-outs stand apart in the source and are kept apart here.

A short description of assay [1]: Lewis acidity: rate constant of reaction between CoTPP and oxygen in the presence of a Lewis acid. The assay is classed as physicochemical.
Another assay deals with Escherichia coli MV1184. The assay is described as follows: MIC/MBC determination, microplate. The assay is classed as cell-based. Conditions: E. coli; 37° C., 24 hours.
A further assay concerns Staphylococcus aureus. The assay can be described thus: MIC/MBC determination, microplate. As to conditions: S. aureus; 37° C., 24 hours. The format is cell-based.

Consider `CC(C)(C)CC(C)(C)c1ccc(OCCOCC[N+](C)(C)Cc2ccccc2)cc1.[Cl-]` [benzetonium chloride, benzethonium chloride], for which the kcat in assay [1] was 0.24 and 0.24 M^−2 s^−1. As for `CCCC[N+](CCCC)(CCCC)CCCC.F[P-](F)(F)(F)(F)F` [tetrabutylammonium hexafluorophosphate], in assay [1], the kcat is above 0.1 M^−2 s^−1. Regarding benzalkonium chloride, the kcat in assay [1] (rate constant of reaction between CoTPP and oxygen in the presence of a Lewis acid, MeCN, saturated O2, room temperature) was determined as 0.18 M^−2 s^−1. sodium chlorite [Comp. Ex. 7]: the MIC against Escherichia coli MV1184 is 25< ppm. On to sodium chlorite [compound 6], for which the MIC in the assay on Staphylococcus aureus is given as 40 ppm. In the assay with Escherichia coli MV1184, this compound came in with an MBC of 50 ppm and an MIC of 30 ppm.
